Where two headings read alike, the source gives them in different places.
Experiment: Permeability and efflux ratio in Caco-2 cells
Format: in vitro ADME
Settings: human; for recovery at 120 min, 10 µM: Caco-2, Caco-2, 10 µM
Experimental: Human colon carcinoma (Caco-2) cells, which were obtained from Military Medical Research Institute, were maintained in Dulbecco’s modified Eagle’s medium. Caco-2 cells were seeded onto […] (PET) in 96-well Falcon insert systems at 2 × 10^5 cells/cm^2 for 21–28 days for confluent cell monolayer formation. […] Test compounds were diluted with the transport buffer (HBSS without BSA) from a 10 mM stock solution to a concentration of 10 µM and applied to the apical or basolateral side of the cell monolayer. Permeation of the test compounds in the direction from A to B or from B to A was determined in duplicate over a 120-min incubation at 37 °C and 5% CO2 with a relative humidity of 95%. In addition, the efflux ratio of each compound was also determined. Test and reference compounds were quantified by LC-MS/MS analysis based on the peak area ratio of analyte/IS. The apparent permeability coefficient Papp (cm/s) was calculated using the following equation:Papp = (dCr/dt) × Vr/(A × C0) where dCr/dt is the cumulative concentration of the compound in the receiver chamber as a function of time (S); Vr is the solution volume in the receiver chamber (0.1 mL on the apical side, 0.25 mL on the basolateral side); A is the surface area for the transport, i.e., 0.0804 cm^2 for the area of the monolayer; C0 is the initial concentration in the donor chamber. […] Cd and Cr are the final concentrations of transport compound in donor and receiver chambers, respectively. Cc is the compound concentration in the cell lysate solution. Vc is the volume of insert well (0.1 mL in this assay).

[1] = Caco-2, 10 µM, 120-min incubation, 37 °C

recovery at 120 min, 10 µM (read-out: Mean Recovery % B to A) [%] | Papp A→B at 120 min, 10 µM [1] [×10⁻⁶ cm/s] | Papp B→A at 120 min, 10 µM [1] [×10⁻⁶ cm/s] | recovery at 120 min, 10 µM (read-out: Mean Recovery % A to B) [%] | Compound
95.3 | 0.65 | 14.6 | – | C[C@H]1O[C@@H](O[C@H]2[C@@H](O)C[C@H](O[C@H]3[C@@H](O)C[C@H](O[C@H]4CC[C@@]5(C)[C@H](CC[C@@H]6[C@@H]5C[C@@H](O)[C@]5(C)[C@@H](C7=CC(=O)OC7)CC[C@]65O)C4)O[C@@H]3C)O[C@@H]2C)C[C@H](O)[C@@H]1O [Digoxin]
– | 29.4 | – | 81 | CC(C)NCC(O)COc1cccc2ccccc12 (centres unmarked) [Propranolol]
